Assay results reported in publication PMC10475101, “Selective steroidogenic cytochrome P450 haem iron ligation by steroid-derived isonitriles” (Communications Chemistry, 2023).
Values joined by “and” are separate entries in the source; they are usually repeats but may differ in a detail not shown here. Equal values may be shown once. “Also recorded” adds a separate entry of the source.

Tests used:
CYP17A1 [1] = target: T1, CYP17A1 (Homo sapiens, UniProt P05093); experiment: Ligand binding assay (UV-visible difference spectra titration)
T1 construct: made in house
T1 sequence (P05093 1-508): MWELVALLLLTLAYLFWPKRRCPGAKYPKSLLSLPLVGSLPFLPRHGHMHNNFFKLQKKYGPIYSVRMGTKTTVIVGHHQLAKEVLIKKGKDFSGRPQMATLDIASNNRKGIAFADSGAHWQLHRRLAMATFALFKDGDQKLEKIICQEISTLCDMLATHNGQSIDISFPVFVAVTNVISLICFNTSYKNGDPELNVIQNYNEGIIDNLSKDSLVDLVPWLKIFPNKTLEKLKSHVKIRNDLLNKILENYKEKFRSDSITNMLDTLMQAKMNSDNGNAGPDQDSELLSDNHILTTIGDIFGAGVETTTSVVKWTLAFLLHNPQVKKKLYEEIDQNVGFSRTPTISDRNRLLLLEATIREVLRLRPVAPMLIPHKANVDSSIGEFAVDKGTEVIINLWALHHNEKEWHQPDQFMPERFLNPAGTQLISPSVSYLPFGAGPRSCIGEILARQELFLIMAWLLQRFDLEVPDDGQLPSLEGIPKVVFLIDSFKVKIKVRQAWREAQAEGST
Method: (§1) (Adapted from DeVore, et al.)[25] Ligand interaction with the heme iron was evaluated by titrating ligands into a cuvette containing purified CYP17A1[14], CYP2D6 L230D/L231R[26], or CYP3A4[27] and measured using a UV-visible scanning spectrophotometer. Enzyme was diluted to 0.2 µM in 100 mM potassium phosphate buffer (pH 7.4), 20% glycerol, and 100 mM sodium chloride and divided equally between two 5 mL cuvettes to evaluate high-affinity binding. Ligands dissolved in dimethylsulfoxide (DMSO) were added to the sample cuvette and an equal volume of DMSO to the reference cuvette. Difference spectra were recorded from 300 to 500 nm after equilibration of enzyme and ligand. Binding to the enzyme was measured as the difference in maximal and minimal absorbance: A387—A419 for pregnanolone and 3-formyl pregnanolone, and A435—A393 for compound 1 with CYP17A1; A434—A414 for compound 1 with CYP3A4 and CYP2D6. The dissociation constant and maximum spectral change were calculated using tight-binding or quadratic equation. All data fitting was accomplished using GraphPad Prism 9. Details of fitting are provided in Supplementary Information, and numerical data used to generate graphs in Figs. 2, 4 and 5 are provided in Supplementary Data 3 in Excel format.

CYP2D6 L230D/L231R = target: T2, CYP2D6 L230D/L231R (Homo sapiens, UniProt P10635, L230D/L231R); experiment: as above
T2 construct: made in house
T2 sequence (P10635 whole entry L230D/L231R): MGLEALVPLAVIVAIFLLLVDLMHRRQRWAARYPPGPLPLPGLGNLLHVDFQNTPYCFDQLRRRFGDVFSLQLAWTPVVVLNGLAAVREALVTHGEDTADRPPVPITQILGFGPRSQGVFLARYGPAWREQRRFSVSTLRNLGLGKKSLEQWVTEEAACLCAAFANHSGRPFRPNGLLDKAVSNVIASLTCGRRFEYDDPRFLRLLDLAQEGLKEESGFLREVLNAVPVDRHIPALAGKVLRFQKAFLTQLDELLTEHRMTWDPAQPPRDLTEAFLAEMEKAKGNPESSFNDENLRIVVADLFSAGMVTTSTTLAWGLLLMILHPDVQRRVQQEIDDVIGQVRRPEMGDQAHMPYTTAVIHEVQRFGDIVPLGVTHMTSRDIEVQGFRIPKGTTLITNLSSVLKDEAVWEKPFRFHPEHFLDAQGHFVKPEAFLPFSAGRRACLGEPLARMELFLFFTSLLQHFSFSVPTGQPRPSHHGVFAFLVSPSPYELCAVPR
Method: as §1

CYP17A1 [2] = target: T1, CYP17A1; experiment: Reduction and reoxidation assay
Method: (§2) Reduction of the 1-bound P450 complex was observed by taking a baseline absorbance reading from 400 to 500 nm using a UV-visible scanning spectrophotometer, of a 1 cm quartz cuvette containing 1 µM P450, with compound 1 at a saturating concentration (i.e., ≥ concentration needed to reach ΔAmax), in binding assay buffer (100 mM potassium phosphate buffer (pH 7.4), 20% glycerol, and 100 mM sodium chloride). A small quantity of sodium dithionite (spatula tip-full) was then added to the cuvette, and the spectra were recorded periodically over time to observe the formation of peaks indicating the reduction (~426 and 456 nm) and subsequent reoxidation (~435 nm) of the complex. The total time course for Fig. 6B was 103 min and 37 s. Numerical data used to generate graphs in Fig. 6 are provided in Supplementary Data 3 in Excel format.
(§3) 185 S2) Ligand binding and inhibition assays
(§4) 186 Reduction and reoxidation assays. Reduction of the isonitrile-bound P450 complex was observed by taking
(§5) 187 a baseline absorbance reading from 400 to 500 nm using a UV-visible scanning spectrophotometer, of a 1cm
(§6) 188 quartz cuvette containing 1 µM P450, with the selected isonitrile compound at a saturating concentration
(§7) 189 (i.e., ≥ concentration needed to reach ΔAmax), in the same buffer used for binding assays (100 mM potassium
(§8) 190 phosphate buffer (pH 7.4), 20% glycerol, and 100 mM sodium chloride). A small quantity of sodium dithionite
(§9) 191 (spatula tip-full) was then added to the cuvette, and the spectra were recorded periodically over time to
(§10) 192 observe the formation of peaks indicating the reduction (~426 and 456 nm) and subsequent reoxidation
(§11) 193 (~435 nm) of the complex. The total time course for Figure 6B was 103 minutes and 37 seconds. […]
(§12) 217 initiated by adding NADPH to a final concentration of 1 mM. After 20 minutes, metabolism was quenched
(§13) 218 by adding 50 µL acetonitrile and placed on ice. The reaction vials were centrifuged at 5000 xg for 5 minutes
(§14) 219 to pellet the precipitated protein, then the supernatant was injected onto a C18 column (Phenomenex, Luna,
(§15) 220 50 x 4.6 mm) for HPLC. Separation on HPLC was obtained using a mobile phase of 45%/55% water/methanol
(§16) 221 for 40 minutes. A standard curve of known product concentrations was used to convert the area under the
(§17) 222 curve to the amount of product produced.
(§18) 224 S3) Crystallization of 1-CYP17A1 complex and X-ray diffraction
(§19) 225 Protein Crystallization and Structure Determination. CYP17A1 was saturated with 3β-formyl-5α
(§20) 226 pregnanolone-20(R)-isonitrile (verified by 430 nm Soret peak) and prepared for crystallization via hanging

CYP2D6 = target: T3, CYP2D6 (Homo sapiens, UniProt P10635, L230D/L231R); experiment: Reduction and reoxidation assay
T3 construct: made in house
T3 sequence (P10635 whole entry L230D/L231R): as above
Method: as §2, §3, §4, §5, §6, §7, §8, §9, §10, §11, §12, §13, §14, §15, §16, §17, §18, §19, §20

CYP3A4 = target: T4, CYP3A4 (Homo sapiens, UniProt P08684)
T4 construct: made in house
T4 sequence (P08684 whole entry): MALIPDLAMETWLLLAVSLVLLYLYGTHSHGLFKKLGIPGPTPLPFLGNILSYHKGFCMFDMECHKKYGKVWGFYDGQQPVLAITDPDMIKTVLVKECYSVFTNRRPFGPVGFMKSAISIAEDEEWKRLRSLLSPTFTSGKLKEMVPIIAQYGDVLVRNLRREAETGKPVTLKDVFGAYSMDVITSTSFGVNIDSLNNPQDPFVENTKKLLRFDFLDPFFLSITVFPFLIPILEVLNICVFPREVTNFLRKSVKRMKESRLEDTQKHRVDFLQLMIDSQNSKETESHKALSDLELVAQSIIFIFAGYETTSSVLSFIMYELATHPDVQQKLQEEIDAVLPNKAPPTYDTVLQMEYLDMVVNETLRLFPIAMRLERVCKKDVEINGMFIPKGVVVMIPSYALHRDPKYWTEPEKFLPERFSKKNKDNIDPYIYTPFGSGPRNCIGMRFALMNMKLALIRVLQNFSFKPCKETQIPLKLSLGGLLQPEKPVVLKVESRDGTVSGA
Method: as §2, §3, §4, §5, §6, §7, §8, §9, §10, §11, §12, §13, §14, §15, §16, §17, §18, §19, §20

[3] = CYP17A1/20-(R)-1 complex reduced by sodium dithionite
[4] = CYP2D6/20-(R)-1 complex reduced by sodium dithionite
[5] = CYP3A4/20-(R)-1 complex reduced by sodium dithionite

Q: With `[C-]#[N+][C@H](C)[C@H]1CC[C@H]2[C@@H]3CC[C@H]4C[C@@H](OC=O)CC[C@]4(C)[C@H]3CC[C@]12C` [Compound 1, 3β-formyl-5α-pregnanolone-(R)-20-isonitrile] as the molecule, how does the “Soret peak shift in difference spectra” value (CYP17A1 [1]; 2:1 mixture of C20 epimers of 1) read?
A: Its value is 430 nm.

Q: And the “Soret peak after titration (heme spectral shift from 417 nm water-bound)” value (CYP17A1 [1]; ferric CYP17A1, 430 nm = Fe—C isonitrile bond, 424 nm = type II Fe—N)?
A: The value was 430 nm.

Q: What about the “dissociation constant estimate (tight binding equation fit)” value (CYP17A1 [1]; protein 200 nM, 95% CI undefined to 1.7 nM) of the same molecule?
A: The value was 149 aM.

Q: What about the “dissociation constant for CYP2D6 relative to CYP17A1” value (CYP2D6 L230D/L231R; CYP2D6 versus CYP17A1) of the same molecule?
A: The value was 3 million.

Q: What about the Kd (CYP2D6 L230D/L231R; protein 200 nM, 5 cm cuvette, n = 2, 95% CI undefined –6.4 nM, read-out: dissociation constant (Kd)) of the same molecule?
A: The Kd was 0.49 nM and ~0.49 nM.

Q: And the “Fe—CN—R bond formation on titration” value (CYP2D6 L230D/L231R; titration of CYP2D6)?
A: Its value is “indicated the formation of the Fe—CN—R bond”.

Q: What about the “reoxidation of reduced complex in air” value (CYP17A1 [2]; CYP17A1/20-(R)-1, in air over 105 min) of the same molecule?
A: Its value is “largely resistant to re-oxidation; also recorded: little reoxidation”.

Q: What about the “split Soret after reduction, higher-wavelength maximum” value (CYP17A1 [2]; [3]) of the same molecule?
A: Its value is 454 nm.

Q: And the “split Soret after reduction, lower-wavelength maximum” value (CYP17A1 [2]; [3])?
A: The value was 430 nm and 429.5 nm.

Q: And the “Soret peak after reoxidation in air” value (CYP2D6; CYP2D6/20-(R)-1)?
A: Its value is ~ 435 nm and 437 nm.

Q: What about the “reoxidation of reduced complex in air” value (CYP2D6; CYP2D6/20-(R)-1, same time period) of the same molecule?
A: Its value is “re-oxidizes in air”.

Q: And the “split Soret after reduction, higher-wavelength maximum” value (CYP2D6; [4])?
A: Its value is 455 nm.

Q: And the “split Soret after reduction, lower-wavelength maximum” value (CYP2D6; [4])?
A: Its value is 431 nm.

Q: What about the “Soret peak after reoxidation in air” value (CYP3A4; CYP3A4/20-(R)-1, 103 min) of the same molecule?
A: The value was ~ 435 nm and 437.5 nm.

Q: What about the “reoxidation of reduced complex in air” value (CYP3A4; CYP3A4/20-(R)-1, 103 min) of the same molecule?
A: Its value is “slowly re-oxidizes”.

Q: What about the “split Soret after reduction, higher-wavelength maximum” value (CYP3A4; [5]) of the same molecule?
A: The value was 454 nm.

Q: What about the “split Soret after reduction, lower-wavelength maximum” value (CYP3A4; [5]) of the same molecule?
A: Its value is 428 nm.
